Several values for one entry are separate records, joined by “and”; a condition that tells them apart may be missing. Identical values can stand only once. ± gives the expanded uncertainty stated by the source.
Key:
[1] = 101 kPa, Liquid; for mass density: Vibrating tube method
[2] = xn = mol fraction of the nth substance listed; details: 101 kPa, Liquid, x2 = 0; for mass density: Vibrating tube method

SMILES | viscosity ([1]; 308.15 K) | mass density ([1]; 308.15 K) | viscosity ([1]; 313.15 K) | mass density ([1]; 313.15 K) | mass density ([1]; 318.15 K) | mass density ([2]; 308.15 K) | viscosity ([2]; 308.15 K) | mass density ([2]; 313.15 K) | viscosity ([2]; 313.15 K)
c1ccccc1 [benzene] | 0.5272 ± 0.0098 mPa·s | 862.9 ± 0.2 kg/m3 | 0.4942 ± 0.0093 mPa·s | 857.7 ± 0.2 kg/m3 |  |  |  |  | 
C1CCCCCCC1 [cyclooctane] | 1.803 ± 0.029 mPa·s | 823.6 ± 0.2 kg/m3 | 1.636 ± 0.027 mPa·s | 819.7 ± 0.2 kg/m3 |  |  |  |  | 
CCc1ccccc1 [ethylbenzene] | 0.5652 ± 0.01 mPa·s | 853.7 ± 0.2 kg/m3 | 0.5294 ± 0.0099 mPa·s | 849.5 ± 0.2 kg/m3 | 849.5 ± 0.2 kg/m3 |  |  |  | 
CCCCCCC [heptane] | 0.3497 ± 0.0071 mPa·s | 671.3 ± 0.3 kg/m3 | 0.3329 ± 0.0069 mPa·s | 667.1 ± 0.3 kg/m3 |  |  |  |  | 
Cc1ccccc1 [toluene] | 0.494 ± 0.0093 mPa·s | 852.8 ± 0.2 kg/m3 | 0.4676 ± 0.0089 mPa·s and 0.4755 ± 0.009 mPa·s | 848.3 ± 0.2 kg/m3 | 848.3 ± 0.2 kg/m3 |  |  |  | 
Cc1ccccc1 [toluene] + c1ccccc1 |  |  |  |  |  | 852.8 ± 0.2 kg/m3 | 0.494 ± 0.0093 mPa·s | 848.3 ± 0.2 kg/m3 | 0.4676 ± 0.0089 mPa·s

From the NIST ThermoML archive (doi:10.1007/s10765-009-0667-2)
